Laboratory results from patent US5098927A, “Antiretroviral agent, method of use thereas, and method of preparation” (Fujisawa Pharmaceutical Co., Ltd., priority 1989, dated 1992).

How the values were obtained:
[1] = tested on: immunosuppressive factors; conditions: stated without data; cited from earlier work
[2] = Acute toxicity testing in mice; format: in vivo, mouse (ddY, female)
Protocol: The compound (I) was administered to mice (ddY strain, female, 5 weeks old) at a dose of 1 g per kg body weight by intravenous injection.

Friend leukemia virus [3] = experiment: Inhibitory effect on the induction of splenomegaly by Friend leukemia virus in mice; format: in vivo, mouse (male C3H/HeN); conditions: for inhibition of splenomegaly in mice (in words): Friend leukemia virus; for Spleen weight / Inhibition: day 14; for Inhibition: percent inhibition of infection from spleen weight
Protocol: Male C3H/HeN mice (5 weeks old) were intraperitoneally inoculated with 3.1 × 10^1 MID50 /mouse of Friend leukemia virus (in 0.2 ml) and then, after this infection procedure, the active ingredient [compound (I) or compound (II)] of the present invention was administered at a specified dose in the form of a solution in sterile physiological saline by the route specified below (Experiment 1 or 2). On day 14 after infection, the mice were sacrificed by exsanguination and the spleen weight (in mg) was measured for evaluating the inhibitory effect of the compound (I) and (II) on the induction of splenomegaly. In each experiment, the control group consisted of mice given no active ingredient after infection with Friend leukemia virus. The percent inhibition of infection was calculated as follows: [formula] The compound (I) was intravenously administered 4 hours after infection (day 0) and then twice daily on days 1 to 4 and days 7 to 11 (19 times in total). The compound (II) was orally administered 1 hour after infection and then according to the same schedule as in Experiment 1. The compound (II) used was in the α form, namely the compound (II'). Friend leukemia virus used in the above test is known to be a lymphotropic retrovirous, like HIV. Since the extent of splenomegaly in mice induced by said virus is proportional to the proliferation of said virus, the inhibitory effect of an agent on the proliferation of Friend leukemia virus can be estimated by assaying its inhibitory effect on the splenomegaly in mice.

[4] = tested on: cytopathic effect of HIV: LAV-1-infected CEM cells / Molt4 (clone 8) cells; experiment: Inhibitory effect on the cytopathic effect of HIV (syncytium/giant cell formation); format: cell-based, human immunodeficiency virus (LAV-1)
Protocol: The inhibitory effect of the compound (I) on the cytopathic effect (syncytium formation) by HIV infection on T lymphocytes was evaluated in the following manner.
(1) CEM cells infected with LAV-1 were washed twice with RPMI 1640 medium and a cell suspension (1 × 10^6 cells/ml) was prepared using the same medium. The suspension was distributed in 100-μl portions into culture tubes (16 × 125 mm). Complete medium^*1 containing the compound (I) in several specified concentrations was added to the culture tubes and incubation was performed in the presence of 5% carbon dioxide a 37° C. for 3 days.
The LAV-1-infected CEM cells thus cultured were washed twice with RPMI 1640 medium and then adjusted to 4 × 10^5 cells/ml with the complete medium.
[*1: RPMI 1640 medium supplemented with 20% fetal calf serum, 2.5 mM glutamine, kanamycin (100 μg/ml) and penicillin G (100 units/ml)]
(2) Molt4 (clone 8) cells were washed twice with RPMI 1640 medium and then adjusted to 2 × 10^6 cells/ml with the complete medium.
(3) The LAV-1-infected CEM cell suspension in complete medium prepared in (1) and the Molt4 (clone 8) cell suspension in complete medium prepared in (2) were respectively distributed in 50-μl portions into 96 well flat bottomed tissue culture plate, followed by further addition of 50 μl of each solution of the compound (I) in complete medium to each well, which was, in advance, prepared to give a final concentration of compound (I) of 100 μg/ml, 50 μg/ml, 20 μg/ml or 10 μg/ml (the final volume in each well being 150 μl).
(4) The above tissue culture plate was incubated at 37° C. in the presence of 5% carbon dioxide for 16 hours and then the giant cells resulting from cytopathic alteration of Molt4 (clone 8) cells were counted within the visual field of a microscope (magnification × 400).
The compound (II) was also evaluated for the same inhibitory effect (the α isomer, i.e. the compound (II'), was selected as a representative of the compound (II)).

α-glucosidase = conditions: stated without data; cited from earlier work
Friend leukemia virus [5] = experiment: Inhibitory effect on the induction of splenomegaly by Friend leukemia virus in mice; format: in vivo, mouse (male C3H/HeN); conditions: combination with azidothymidine (AZT); no data given
inflammation = experiment: Anti-inflammatory activity (general statement); conditions: stated in words
[6] = Stability and hygroscopicity; format: physicochemical; conditions: compared with the pyrroline compound (I)
[7] = tested on: Type II collagen-induced arthritis; experiment: Type II collagen-induced arthritis in rats; format: in vivo, rat (female Lewis); conditions: oral, means ± SEM
Protocol: (2R, 3S, 4R, 5R)-3,4-dihydroxy-5-hydroxymethyl-2-pyrrolidinesufonic acid (compound (II'))
Inbred 7-week-old female Lewis rats were handled under specific pathogen-free conditions and acclimated to the new environment for a week before use.
Type II bovine collagen was dissolved at 4° C. in 0.01M acetic acid at a concentration of 2 mg/ml. The solution was emulsified in an equal volume of incomplete Freund's adjuvant. Rats were anesthetized with sodium pentobarbital (30 mg/kg, i.p.) and the backs of rats were shaved. Under anesthesia, each rat was immunized with 0.8 ml of the cold emulsion by several intradermal injections on the depilated back and one or two injections into the base of the tail.
The test compound was dissolved in distilled water and administered orally at various doses in 5 ml/kg. From the day of immunization, the test compound or vehicle was administered once a day for 2 weeks.
The extent of arthritis was expressed as the increase in paw volume of each rat. The volume of both hind legs below the knee joint was measured with a plethysmometer. The rats were immunized on day 0 and the paw volume was measured on day 12 and 14. Mean increases in the paw volume of each group was calculated and the result was expressed as means ± SEM. Each group consisted of 10 rats.

Structure (SMILES): OC[C@H]1N=C[C@@H](O)[C@@H]1O [Compound (I), (3R, 4R, 5R)-3,4-dihydroxy-5-hydroxymethyl-1-pyrroline]
- activity against immunosuppressive factors [1]: activity against immunosuppressive factors
- body weight ([2]; 1 g per kg body weight, intravenous injection): body weight gains
- survival ([2]; mouse, in vivo, iv): The mice survived
- inhibition of splenomegaly in mice (in words) (Friend leukemia virus [3]): can inhibit such splenomegally in mice
- Spleen weight (Friend leukemia virus [3]; intravenous, 20 mg/kg/administration, 19 times, control 1149 ± 220, normal 92 ± 3 mg, mean of 10 mice): 840 ± 421 mg
- Inhibition (Friend leukemia virus [3]; intravenous, 20 mg/kg/administration, 19 times): 29%
- Spleen weight (Friend leukemia virus [3]; intravenous, 80 mg/kg/administration, 19 times, control 1149 ± 220, normal 92 ± 3 mg, mean of 10 mice): 667 ± 241 mg
- Inhibition (Friend leukemia virus [3]; intravenous, 80 mg/kg/administration, 19 times): 46%
- Number of giant cells ([4]; compound (I) 10 μg/ml, 16 h, control (0 μg/ml) 260.5, mean of two countings): 246.5
- Number of giant cells ([4]; compound (I) 20 μg/ml, 16 h, control (0 μg/ml) 260.5, mean of two countings): 147.5
- Number of giant cells ([4]; compound (I) 50 μg/ml, 16 h, control (0 μg/ml) 260.5, mean of two countings): 44.5
- Number of giant cells ([4]; compound (I) 100 μg/ml, 16 h, control (0 μg/ml) 260.5, mean of two countings): 9.5
- α-glucosidase inhibiting activity (α-glucosidase): α-glucosidase inhibiting activity
- potentiation of azidothymidine (AZT) in inhibiting splenomegaly in mice (Friend leukemia virus [5]): can potentiate azidothymidine (AZT) in inhibiting such splenomegaly in mice

Structure (SMILES): O=S(=O)(O)C1N[C@H](CO)[C@@H](O)[C@@H]1O (some centres unmarked) [(II)]
- inhibition of splenomegaly in mice (in words) (Friend leukemia virus [3]): can inhibit such splenomegally in mice
- anti-inflammatory activity (inflammation): has anti-inflammatory activity
- hygroscopicity [6]: less hygroscopic than the pyrroline compound (I)
- stability [6]: very stable
- potentiation of azidothymidine (AZT) in inhibiting splenomegaly in mice (Friend leukemia virus [5]): can potentiate azidothymidine (AZT) in inhibiting such splenomegaly in mice

Structure (SMILES): O=S(=O)(O)[C@H]1N[C@H](CO)[C@@H](O)[C@@H]1O [Compound (II'), (2R, 3S, 4R, 5R)-3,4-dihydroxy-5-hydroxymethyl-2-pyrrolidinesulfonic acid]
- Spleen weight (Friend leukemia virus [3]; oral, 10 mg/kg/administration, first 1 hour after infection, control 1073 ± 26, normal 79 ± 2 mg, mean of 8 mice): 875 ± 71 mg
- Inhibition (Friend leukemia virus [3]; oral, 10 mg/kg/administration, first 1 hour after infection): 20%
- Paw volume change ([7]; 10 mg/kg once a day, 12 day, control 0.29 ± 0.13, normal 0.03 ± 0.07): 0.16 ± 0.15 mL
- Paw volume change ([7]; 10 mg/kg once a day, 14 day, control 0.41 ± 0.24, normal 0.05 ± 0.03): 0.27 ± 0.21 mL
- Paw volume change ([7]; 32 mg/kg once a day, 12 day, control 0.29 ± 0.13, normal 0.03 ± 0.07): 0.13 ± 0.10 mL
- Paw volume change ([7]; 32 mg/kg once a day, 14 day, control 0.41 ± 0.24, normal 0.05 ± 0.03): 0.19 ± 0.22 mL
- Paw volume change ([7]; 100 mg/kg once a day, 12 day, control 0.29 ± 0.13, normal 0.03 ± 0.07): 0.08 ± 0.11 mL
- Paw volume change ([7]; 100 mg/kg once a day, 14 day, control 0.41 ± 0.24, normal 0.05 ± 0.03): 0.06 ± 0.04 mL
- Number of giant cells ([4]; compound (II') 1 μg/ml, control (0 μg/ml) 173.0 ± 2.0, mean ± SD): 119.5 ± 16.5
- Number of giant cells ([4]; compound (II') 3 μg/ml, control (0 μg/ml) 173.0 ± 2.0, mean ± SD): 106.0 ± 19
- Number of giant cells ([4]; compound (II') 10 μg/ml, control (0 μg/ml) 173.0 ± 2.0, mean ± SD): 89.0 ± 10
- Number of giant cells ([4]; compound (II') 30 μg/ml, control (0 μg/ml) 173.0 ± 2.0, mean ± SD): 53.5 ± 8.5
- Number of giant cells ([4]; compound (II') 100 μg/ml, control (0 μg/ml) 173.0 ± 2.0, mean ± SD): 26.5 ± 3.5
